Values of other authors as cited in US20240293312A1, “PHARMACEUTICAL COMPOSITIONS OF 3-(4-AMINO-1-OXO-1, 3 DIHYDRO-ISOINDOL-2-YL)-PIPERIDINE-2, 6-DIONE” (priority 2021, published 2024).

**Q.** Which “solubility (in words)” value does the source give for `Nc1cccc2c1CN(C1CCC(=O)NC1=O)C2=O` (stereo not shown) [Lenalidomide, 3-(4-amino-1-oxo-1,3-dihydro-2H-isoindol-2-yl) piperidine-2,6-dione] here?
**A.** soluble in organic solvent/water mixtures, and buffered aqueous solvents
